{"source": "patent US9486467B2", "about": "“Method of treating colorectal cancer that expresses a mutated APC gene by administering erythromycin or tylosin” (RAMOT AT TEL-AVIV UNIVERSITY LTD., priority 2006, dated 2016)", "key": {"[1]": {"tested_on": "APC hotspot stop codon mutations", "test": "Dual luciferase reporter plasmid system for APC stop codon readthrough", "format": "cell-based", "conditions": "HCT116 colorectal cancer cells; APC hotspots 1061, 1554, 1450; tylosin 4-80 μg/ml", "description": "HCT116 CRC cells (control cells carrying a wild-type APC) were cultured in Dulbecco's modified Eagle's medium (DMEM) supplemented with 10% fetal calf serum (FCS) and 100 units/ml penicillin or streptomycin. Cells were kept in a humidified, 5% CO2 atmosphere at 37° C. Cells were transfected using JetPEI (PolyPlus Transfection). The cells were transfected with 0.5 μg of the described construct, and 48 hours later, the levels of luciferase were measured with the Luciferase assay kit (Promega, USA), according to the manufacturer's instructions.\nA dual luciferase reporter plasmid system was used to measure the effect of tylosin on readthrough of APC hotspot stop codon mutations in colorectal tissue culture cells. In this system, the Renilla luciferase reporter gene is located upstream of the hotspot, and the firefly luciferase reporter gene is located downstream of the hotspot in the APC wild-type or mutated sequences, and both genes are under the transcriptional control of the APC promoter (FIG. 2a). The Renilla luciferase gene serves as an internal normalization control for transfection efficiency, mRNA abundance and the levels of translation initiation, since translation of both enzymes originates from the same translation initiation signal. Following normalization, the differences in firefly luciferase activities reflect the frequency of stop codon readthrough. Constructs containing either wild-type or the APC mutated sequence at the APC hotspot codons 1061 or 1554 were transfected into HCT116 colorectal cancer cells grown in the presence of varying amounts of antibiotics of the macrolide family."}, "[2]": {"tested_on": "β-catenin/Tcf signaling", "test": "pTOPFLASH luciferase reporter of β-catenin/Tcf-mediated transcription", "format": "cell-based", "conditions": "CX-1 CRC cells (stop mutation in APC hotspot 1554); 8 μg/ml tylosin; 48 h after transfection", "description": "Cells were maintained as described above. Cells were transfected with 0.5 μg of pTOPFLASH and 0.05 μg Renilla (Promega, USA). Forty-eight hours later, the levels of luciferase were measured by using the Luciferase assay kit (Promega, USA).\nColorectal cell lines show high levels of β-catenin/Tcf-mediated transcription due to mutations that lead to over-activation of the Wnt signaling pathway. To measure the effect of tylosin on levels of β-catenin/Tcf-mediated transcription, CX-1 CRC cells containing a stop mutation in APC hotspot 1554 were transfected with pTOPFLASH, a luciferase reporter plasmid that is widely used for measuring transcriptional activity of Tcf and β-catenin (pTOPFLASH contains multimerized Tcf-binding sites linked to a luciferase reporter)."}, "[3]": {"tested_on": "HT-29 CRC cells", "test": "HT-29 CRC cell tumorigenicity in nude mice, tylosin in drinking water", "format": "in vivo", "conditions": "0.4 μg/ml tylosin in the drinking water", "description": "Six female Nude mice (SCID) were injected with 1×10^7 HT-29 cells. For fourteen days treated groups were fed a normal mouse diet and received drinking water containing 0.4 mg/ml of tylosin. The control group received regular drinking water. Following fourteen days, the mice were sacrificed and the tumors were removed and weighed.\nTruncation of APC correlates with tumor formation (15). The present inventor predicted that restoration of functional, full-length APC protein in a cell line containing only truncated APC would lead to a decrease in tumorigenesis. 1×10^7 HT-29 CRC cells containing a hotspot mutation at codon 1554 of APC were injected into twelve nude SCID mice. The treated mice group (six mice) received 0.4 μg/ml tylosin in the drinking water. […] Following fourteen days of receiving drinking water with or without tylosin, the mice were sacrificed and the tumor was removed. The tumors were weighed and the tumor mass of the tylosin-treated mice was, on average, approximately 40% lower than that of the control group (FIG. 4b)."}, "[4]": {"tested_on": "HT-29 CRC cells", "test": "H&E histology of tumors from control and tylosin-treated mice", "format": "in vivo", "conditions": "tumor sections of tylosin-treated mice versus control", "source_text": "Tumor sections from control and treated mice were stained with H&E stain. The slides were examined by a professional pathologist.\nTumor sections from control and tylosin-treated mice were stained with Hematoxylin and Eosin (H&E) stain, a stain used routinely for tissue sections, and were examined by a professional pathologist."}, "[5]": {"tested_on": "APC", "test": "Anti-APC immunoblot of tumor lysates from treated mice", "format": "in vivo", "conditions": "tumors of mice treated with 0.8 mg/ml, 0.4 mg/ml tylosin versus NT, HCT116 wild-type APC as size marker", "description": "Tumors from control and treated mice were lysed, run on an SDS-PAGE gel, and transferred to a nitrocellulose membrane. The membrane was incubated with an anti-APC antibody (oncogene APC AB-2)."}}, "note": "“Also recorded” adds a separate entry of the source.", "data": [{"compound": "CC[C@H]1OC(=O)C[C@@H](O)[C@H](C)[C@@H](O[C@@H]2O[C@H](C)[C@@H](O[C@H]3C[C@@](C)(O)[C@@H](O)[C@H](C)O3)[C@H](N(C)C)[C@H]2O)[C@@H](CC=O)C[C@@H](C)C(=O)/C=C/C(C)=C/[C@@H]1CO[C@@H]1O[C@H](C)[C@@H](O)[C@@H](OC)[C@H]1OC", "note": "[tylosin]", "values": [{"measurement": "APC stop codon readthrough (firefly luciferase normalized to Renilla)", "setting": "[1]", "result": "significant levels of APC stop codon readthrough; also recorded: higher levels of readthrough compared to erythromycin, spiramycin, and gentamycin"}, {"measurement": "reduction in β-catenin/Tcf/LEF transcriptional signaling", "setting": "[2]", "result": "approximately 50%"}, {"measurement": "tumor size versus control mice", "setting": "[3]; nude SCID mice injected with 1×10^7 HT-29 cells, FIG. 4: ten days post-injection", "result": "reduced tumor size compared with the control mice; also recorded: smaller compared to that of the control group"}, {"measurement": "tumor mass lower than that of the control group, on average", "setting": "[3]; nude SCID mice, HT-29 cells, fourteen days", "result": "approximately 40%"}, {"measurement": "blood supply to the tumor (H&E stain)", "setting": "[4]", "result": "not affected"}, {"measurement": "tumor histology (H&E stain)", "setting": "[4]", "result": "necrosis and death of tumor cells"}, {"measurement": "expression of full-length APC in tumors (anti-APC antibodies)", "setting": "[5]", "result": "a higher amount of tylosin increased the expression of the full-length protein accordingly"}, {"measurement": "expression of full-length APC in tumors (anti-APC antibodies)", "setting": "[5]; listed as Tylosin", "result": "expression of full-length APC"}]}, {"compound": "CC[C@H]1OC(=O)[C@H](C)[C@@H](O[C@H]2C[C@@](C)(OC)[C@@H](O)[C@H](C)O2)[C@H](C)[C@@H](O[C@@H]2O[C@H](C)C[C@H](N(C)C)[C@H]2O)[C@](C)(O)C[C@@H](C)C(=O)[C@H](C)[C@@H](O)[C@]1(C)O", "note": "[erythromycin, Erythromycin]", "values": [{"measurement": "APC stop codon readthrough (firefly luciferase normalized to Renilla)", "setting": "[1]", "result": "more moderate levels of stop codon readthrough"}]}, {"compound": "gentamycin", "values": [{"measurement": "APC stop codon readthrough (firefly luciferase normalized to Renilla)", "setting": "[1]", "result": "more moderate levels of stop codon readthrough"}]}, {"compound": "Spiramycin", "values": [{"measurement": "APC stop codon readthrough (firefly luciferase normalized to Renilla)", "setting": "[1]", "result": "more moderate levels of stop codon readthrough"}]}]}
